What follows are substances tested on NanoLuc (assay: NanoLuc luciferase reporter expression from constitutive promoters and RBSs integrated with pNBU2). Details: RBS combined with promoter PBT1311, NanoLuc reporter, three biological replicates.
Format: cell-based, B. thetaiotaomicron
Source text: FIGS. 1A-1G. Genetic parts to control expression in B. thetaiotaomicron. (FIG. 1A) The ranges of gene expression are shown for the different gene regulation systems provided herein. (FIG. 1B) IntN2 catalyzes stable integration of pNBU2-based expression constructs into one of two attBT2 sites in the B. thetaiotaomicron genome. The two attBT2 sites (attBT2-1 at nucleotide (nt) 6,217,227 and attBT2-2 at nt 6,138,320) are in the 3′ ends of tRNA^Ser genes (BT_t71 and BT_t70, respectively). (FIG. 1C) Constitutive promoters and ribosome binding sites for the construction of gene expression libraries. The putative −33 and −7 regions of the PBT1311 promoter, the Shine-Delgarno sequence, and the start codon are indicated by black boxes. Numbers below the black boxes represent nucleotide locations relative the PBT1311 transcription start site. The 26 nt sequences introduced in the PAM promoters are shown (see also FIGS. 6A-6B). Numbers at the edges of the boxes indicate the PBT1311 nucleotides replaced or the insertion site within the promoter. The location of residues randomized in the rpiL* RBS library are indicated with gray arrows (for library A: nt −14, −13, −12; for library B: nt −21, −18, −15; and for library C: nt −17, −16, −11; nt numbering is relative to the translation start site). (FIG. 1D) Activity was measured for a set of constitutive promoters and their cognate RBSs. Furthermore, a set of constitutive promoters (PBT1311, PAM1, PAM2, PAM3, PAM4) was combined with RBSs of varying strengths. Gene expression was measured using a luciferase reporter (NanoLuc). (FIG. 1E) Three large RBS libraries were constructed and combined with promoter PBT1311 to span 10^3-fold in gene expression. For reference, the parent rpiL* RBS is indicated with a black arrow. For D and E, error bars represent the standard deviation of three independent biological replicates made on separate days. (FIG. 1F) The strength of each RBS was compared to the predicted free energy of folding for the mRNA (ΔGfold,). (FIG. 1G) Strong (SEQ ID NO: 210) and weak (SEQ ID NO: 211) consensus sequences for the rpiL* −21 to −11 RBS region targeted by mutagenesis (residue locations are stated relative to the translation start site) are provided. Frequency logos were generated for the 11 strongest and 11 weakest RBSs by comparing the frequency of each nucleotide at each position in that group with the frequency of that nucleotide in that position in the full library. Position −20 and −19 were not randomized and are thus are not shown in the frequency logos.
All genetic parts in this study were characterized using the integration vector pNBU2 to ensure genetic stability of the constructs (FIG. 1B). The pNBU2 plasmid encodes the intN2 tyrosine integrase, which mediates sequence-specific recombination between the attN site of pNBU2 and one of two attBT sites located in the 3′ ends of the two tRNA^Ser genes, BT_t70 and BT_t71, on the B. thetaiotaomicron chromosome (FIG. 1B). Insertion of the pNBU2 plasmid inactivates the tRNA^Ser gene, and simultaneous insertion into both BT_t70 and BT_t71 is unlikely due to the essentiality of tRNA^Ser. pNBU2-based vectors have been used for single-copy complementation in B. thetaiotaomicron in in vitro studies (Koropatkin N M et al. Nat. Rev. Microbiol. 10:323-35, 2012) and in vivo mouse models (Martens E C et al. Cell Host Microbe 4:447-57, 2008).
B. thetaiotaomicron genetic parts were characterized with NanoLuc luciferase (Hall M P et al. ACS Chem. Biol. 7:1848-1857, 2012), which is a small (19 kDa) modified shrimp luciferase. Efforts to use members of the green fluorescent protein family and a FMN-based fluorescent reporter were not successful. NanoLuc oxidizes the exogenously-added substrate furimazine to produce glow-type bioluminescence (Emax=460 nm) with a signal half-life of 2 hr. […]

| Substance | Average Luminescence (RLU/CFU) |
| --- | --- |
| A36: RBS, SEQ ID NO: 111 (DNA TCCCGCATTTTAAAATAAAATAAATTATTTGTTTAGTTAAACGAAT; chemistry not fully specified) | 0.004309 |
| A37: RBS, SEQ ID NO: 113 (DNA TCCCGCATTTTAAAATAAAATAAATTATTTGTTTAATTAAACGAAT; chemistry not fully specified) | 0.003964 |
| A38: RBS, SEQ ID NO: 114 (DNA TCCCGCATTTTAAAATAAAATAAATTATTCCTTTAGTTAAACGAAT; chemistry not fully specified) | 0.003824 |
| A39: RBS, SEQ ID NO: 116 (DNA TCCCGCATTTTAAAATAAAATAAATTATTGTTTTATTTAAACGAAT; chemistry not fully specified) | 0.003302 |
| A40: RBS, SEQ ID NO: 118 (DNA TCCCGCATTTTAAAATAAAATAAATTATTTGTTTATTTAAACGAAT; chemistry not fully specified) | 0.002992 |
| A41: RBS, SEQ ID NO: 123 (DNA TCCCGCATTTTAAAATAAAATAAATTATTATTTTATTTAAACGAAT; chemistry not fully specified) | 0.002417 |
| A42: RBS, SEQ ID NO: 130 (DNA TCCCGCATTTTAAAATAAAATAAATTATTGGTTTACTTAAACGAAT; chemistry not fully specified) | 0.001478 |
| A43: RBS, SEQ ID NO: 131 (DNA TCCCGCATTTTAAAATAAAATAAATTATTCGTTTAATTAAACGAAT; chemistry not fully specified) | 0.001461 |
| A44: RBS, SEQ ID NO: 135 (DNA TCCCGCATTTTAAAATAAAATAAATTATTCGTTTATTTAAACGAAT; chemistry not fully specified) | 0.0006478 |
| A45: RBS, SEQ ID NO: 137 (DNA TCCCGCATTTTAAAATAAAATAAATTATTCGTTTACTTAAACGAAT; chemistry not fully specified) | 0.0005331 |
| B1: RBS, SEQ ID NO: 1 (DNA TCCCGCATTTTAAAATAAAATAAATTATTCGTTTAGTTAAACGAAT; chemistry not fully specified) | 0.09025 |
| B2: RBS, SEQ ID NO: 2 (DNA TCCCGCATTTTAAAATAAAATAAATGATATAATTAATTAAACGAAT; chemistry not fully specified) | 0.06325 |
| B3: RBS, SEQ ID NO: 3 (DNA TCCCGCATTTTAAAATAAAATAAATAATATAATTAATTAAACGAAT; chemistry not fully specified) | 0.06083 |
| B4: RBS, SEQ ID NO: 4 (DNA TCCCGCATTTTAAAATAAAATAAATAATTTAATTAATTAAACGAAT; chemistry not fully specified) | 0.05153 |
| B5: RBS, SEQ ID NO: 5 (DNA TCCCGCATTTTAAAATAAAATAAATTATATAATTAATTAAACGAAT; chemistry not fully specified) | 0.04825 |
| B6: RBS, SEQ ID NO: 6 (DNA TCCCGCATTTTAAAATAAAATAAATAATATACTTAATTAAACGAAT; chemistry not fully specified) | 0.04723 |
| B7: RBS, SEQ ID NO: 8 (DNA TCCCGCATTTTAAAATAAAATAAATAATCTACTTAATTAAACGAAT; chemistry not fully specified) | 0.04704 |

| Substance | Average Luminescence (RLU/CFU) |
| --- | --- |
| B8: RBS, SEQ ID NO: 9 (DNA TCCCGCATTTTAAAATAAAATAAATTATTTAATTAATTAAACGAAT; chemistry not fully specified) | 0.04684 |
| B9: RBS, SEQ ID NO: 10 (DNA TCCCGCATTTTAAAATAAAATAAATTATCTAATTAATTAAACGAAT; chemistry not fully specified) | 0.04634 |
| B10: RBS, SEQ ID NO: 12 (DNA TCCCGCATTTTAAAATAAAATAAATTATATATTTAATTAAACGAAT; chemistry not fully specified) | 0.04421 |
| B11: RBS, SEQ ID NO: 18 (DNA TCCCGCATTTTAAAATAAAATAAATAATGTAATTAATTAAACGAAT; chemistry not fully specified) | 0.03308 |
| B12: RBS, SEQ ID NO: 22 (DNA TCCCGCATTTTAAAATAAAATAAATAATATATTTAATTAAACGAAT; chemistry not fully specified) | 0.03108 |
| B13: RBS, SEQ ID NO: 25 (DNA TCCCGCATTTTAAAATAAAATAAATGATTTAATTAATTAAACGAAT; chemistry not fully specified) | 0.02746 |
| B14: RBS, SEQ ID NO: 26 (DNA TCCCGCATTTTAAAATAAAATAAATTATCTATTTAATTAAACGAAT; chemistry not fully specified) | 0.02715 |
| B15: RBS, SEQ ID NO: 27 (DNA TCCCGCATTTTAAAATAAAATAAATGATTTACTTAATTAAACGAAT; chemistry not fully specified) | 0.02695 |
| B16: RBS, SEQ ID NO: 28 (DNA TCCCGCATTTTAAAATAAAATAAATTATATACTTAATTAAACGAAT; chemistry not fully specified) | 0.02683 |
| B17: RBS, SEQ ID NO: 30 (DNA TCCCGCATTTTAAAATAAAATAAATAATTTAGTTAATTAAACGAAT; chemistry not fully specified) | 0.0259 |
| B18: RBS, SEQ ID NO: 35 (DNA TCCCGCATTTTAAAATAAAATAAATAATGTAGTTAATTAAACGAAT; chemistry not fully specified) | 0.02291 |
| B19: RBS, SEQ ID NO: 42 (DNA TCCCGCATTTTAAAATAAAATAAATTATGTATTTAATTAAACGAAT; chemistry not fully specified) | 0.02048 |
| B20: RBS, SEQ ID NO: 52 (DNA TCCCGCATTTTAAAATAAAATAAATGATCTAATTAATTAAACGAAT; chemistry not fully specified) | 0.01676 |
| B21: RBS, SEQ ID NO: 53 (DNA TCCCGCATTTTAAAATAAAATAAATGATATATTTAATTAAACGAAT; chemistry not fully specified) | 0.01613 |
| B22: RBS, SEQ ID NO: 55 (DNA TCCCGCATTTTAAAATAAAATAAATCATGTAATTAATTAAACGAAT; chemistry not fully specified) | 0.01599 |
| B23: RBS, SEQ ID NO: 61 (DNA TCCCGCATTTTAAAATAAAATAAATAATCTATTTAATTAAACGAAT; chemistry not fully specified) | 0.01464 |
| B24: RBS, SEQ ID NO: 62 (DNA TCCCGCATTTTAAAATAAAATAAATCATTTATTTAATTAAACGAAT; chemistry not fully specified) | 0.01427 |

Same assay, conditions: set of 8 RBSs, under control of PBT1311, NanoLuc reporter

| Substance | Expression Level (RLU/CFU) |
| --- | --- |
| B1: RBS, SEQ ID NO: 1 (DNA TCCCGCATTTTAAAATAAAATAAATTATTCGTTTAGTTAAACGAAT; chemistry not fully specified) | 9.02E-02 |

From patent US11591604B2, “Gene expression in Bacteroides” (Massachusetts Institute of Technology, priority 2015, dated 2023)
